Assay results from patent US20220323406A1, “METHODS AND COMPOSITIONS FOR DIFFERENTIATING STEM CELLS” (Massachusetts Institute of Technology, priority 2019, published 2022).
Structures can show the parent of a compound that is named as a salt.

Experiments:
[1] = system: ENR+CD organoids (ISC to Paneth cell differentiation); test: Primary screen: basal (non-stimulated) lysozyme secretion LYZ.NS, 2.5-D 384-well ENR+CD organoid differentiation; format: cell-based, mouse; settings: primary screen; for Z.LYZ.NS: standard z score
Description: (§1) High-throughput screening.

[2] = system: ENR+CD organoids (ISC to Paneth cell differentiation); test: Primary screen: CCh-stimulated lysozyme secretion LYZ.S, 2.5-D 384-well ENR+CD organoid differentiation; format: cell-based, mouse; settings: primary screen
Description: as §1

ENR+CD organoids = test: Primary screen: ATP (CellTiter-Glo 3D, CTG) cell number/viability, 2.5-D 384-well ENR+CD organoids; settings: primary screen; for Z.CTG: standard z score;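 for all read-outs here: compounds given at plating and again on day 3 over a 6-day differentiation from ENR+CV stem-cell-enriched precursors, ATP measured on day 6, plate median as control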
[3] = 1st dose row of the treatment (0.08 uM by row order; dose not reprinted)
[4] = 2nd dose row of the treatment (0.40 uM by row order; dose not reprinted)
[5] = 3rd dose row of the treatment (2.00 uM by row order; dose not reprinted)
[6] = 4th dose row of the treatment (10.00 uM by row order; dose not reprinted)

CC12CC3CC(C)(C1)CC(N)(C3)C2 [Memantine HCl]
Dose.FC.LYZ.NS (log2 fold change) ([1]; dose 0.08 uM): 0.069
Z.LYZ.NS (standard z score) ([1]; dose 0.08 uM): 0.598
Dose.FC.LYZ.NS (log2 fold change) ([1]; dose 0.40 uM): 0.004
Z.LYZ.NS (standard z score) ([1]; dose 0.40 uM): 0.032
Dose.FC.LYZ.NS (log2 fold change) ([1]; dose 2.00 uM): 0.106
Z.LYZ.NS (standard z score) ([1]; dose 2.00 uM): 0.919
Dose.FC.LYZ.NS (log2 fold change) ([1]; dose 10.00 uM): −0.047
Z.LYZ.NS (standard z score) ([1]; dose 10.00 uM): −0.411
Dose.FC.LYZ.S (log2 fold change) ([2]; dose 0.08 uM): 0.091
Dose.FC.LYZ.S (log2 fold change) ([2]; dose 0.40 uM): 0.017
Dose.FC.LYZ.S (log2 fold change) ([2]; dose 2.00 uM): 0.051
Dose.FC.LYZ.S (log2 fold change) ([2]; dose 10.00 uM): −0.021
Dose.FC.CTG (log2 fold change) (ENR+CD organoids; dose 0.08 uM): 0.083
Dose.FC.CTG (log2 fold change) (ENR+CD organoids; dose 0.40 uM): 0.072
Dose.FC.CTG (log2 fold change) (ENR+CD organoids; dose 2.00 uM): −0.007
Dose.FC.CTG (log2 fold change) (ENR+CD organoids; dose 10.00 uM): 0.077

CC(C)N(CC[C@H](c1ccccc1)c1cc(CO)ccc1O)C(C)C [4CE°8C]
SSMD.LYZ.NS_Rep (strictly standardized mean difference) [1, 3]: 0.497
SSMD.LYZ.NS_Rep (strictly standardized mean difference) [1, 4]: 0.226
SSMD.LYZ.NS_Rep (strictly standardized mean difference) [1, 5]: 0.128
SSMD.LYZ.NS_Rep (strictly standardized mean difference) [1, 6]: −0.861
Dose.FC.LYZ.NS ([1]; dose 0.08 uM): 0.069 log2 fold change
Z.LYZ.NS (standard z score) ([1]; dose 0.08 uM): 0.601
Dose.FC.LYZ.NS ([1]; dose 0.40 uM): 0.047 log2 fold change
Z.LYZ.NS (standard z score) ([1]; dose 0.40 uM): 0.413
Dose.FC.LYZ.NS ([1]; dose 2.00 uM): 0.016 log2 fold change
Z.LYZ.NS (standard z score) ([1]; dose 2.00 uM): 0.138
Dose.FC.LYZ.NS ([1]; dose 10.00 uM): −0.095 log2 fold change
Z.LYZ.NS (standard z score) ([1]; dose 10.00 uM): −0.827
SSMD.LYZ.S_Rep (strictly standardized mean difference) [2, 3]: 0.194
Z.LYZ.S (standard z score) [2, 3]: 0.205
SSMD.LYZ.S_Rep (strictly standardized mean difference) [2, 4]: 0.053
Z.LYZ.S (standard z score) [2, 4]: 0.073
SSMD.LYZ.S_Rep (strictly standardized mean difference) [2, 5]: −0.217
Z.LYZ.S (standard z score) [2, 5]: −0.358
SSMD.LYZ.S_Rep (strictly standardized mean difference) [2, 6]: −0.707
Z.LYZ.S (standard z score) [2, 6]: −0.836
Dose.FC.LYZ.S ([2]; dose 0.08 uM): 0.032 log2 fold change
Dose.FC.LYZ.S ([2]; dose 0.40 uM): 0.011 log2 fold change
Dose.FC.LYZ.S ([2]; dose 2.00 uM): −0.055 log2 fold change
Dose.FC.LYZ.S ([2]; dose 10.00 uM): −0.129 log2 fold change
SSMD.CTG.Rep (strictly standardized mean difference) (ENR+CD organoids; [3]): −0.402
SSMD.CTG.Rep (strictly standardized mean difference) (ENR+CD organoids; [4]): 0.023
SSMD.CTG.Rep (strictly standardized mean difference) (ENR+CD organoids; [5]): −0.340
SSMD.CTG.Rep (strictly standardized mean difference) (ENR+CD organoids; [6]): −0.109
Dose.FC.CTG (ENR+CD organoids; dose 0.08 uM): −0.111 log2 fold change
Z.CTG (standard z score) (ENR+CD organoids; dose 0.08 uM): −0.265
Dose.FC.CTG (ENR+CD organoids; dose 0.40 uM): 0.007 log2 fold change
Z.CTG (standard z score) (ENR+CD organoids; dose 0.40 uM): 0.018
Dose.FC.CTG (ENR+CD organoids; dose 2.00 uM): −0.162 log2 fold change
Z.CTG (standard z score) (ENR+CD organoids; dose 2.00 uM): −0.387
Dose.FC.CTG (ENR+CD organoids; dose 10.00 uM): −0.039 log2 fold change
Z.CTG (standard z score) (ENR+CD organoids; dose 10.00 uM): −0.094

N#C[C@@H]1CCCN1C(=O)CNC12CC3CC(CC(O)(C3)C1)C2 [Vildagliptin (LAF-237)]
Dose.FC.LYZ.NS ([1]; dose 0.08 uM): 0.148 log2 fold change
Z.LYZ.NS (standard z score) ([1]; dose 0.08 uM): 1.285
Dose.FC.LYZ.NS ([1]; dose 0.40 uM): 0.230 log2 fold change
Z.LYZ.NS (standard z score) ([1]; dose 0.40 uM): 2.004
Dose.FC.LYZ.NS ([1]; dose 2.00 uM): 0.170 log2 fold change
Z.LYZ.NS (standard z score) ([1]; dose 2.00 uM): 1.478
Dose.FC.LYZ.NS ([1]; dose 10.00 uM): 0.097 log2 fold change
Z.LYZ.NS (standard z score) ([1]; dose 10.00 uM): 0.846
Dose.FC.LYZ.S ([2]; dose 0.08 uM): 0.099 log2 fold change
Dose.FC.LYZ.S ([2]; dose 0.40 uM): 0.113 log2 fold change
Dose.FC.LYZ.S ([2]; dose 2.00 uM): 0.038 log2 fold change
Dose.FC.LYZ.S ([2]; dose 10.00 uM): 0.013 log2 fold change
Dose.FC.CTG (ENR+CD organoids; dose 0.08 uM): 0.232 log2 fold change
Z.CTG (standard z score) (ENR+CD organoids; dose 0.08 uM): 0.553
Dose.FC.CTG (ENR+CD organoids; dose 0.40 uM): 0.229 log2 fold change
Z.CTG (standard z score) (ENR+CD organoids; dose 0.40 uM): 0.547
Dose.FC.CTG (ENR+CD organoids; dose 2.00 uM): 0.150 log2 fold change
Z.CTG (standard z score) (ENR+CD organoids; dose 2.00 uM): 0.358
Dose.FC.CTG (ENR+CD organoids; dose 10.00 uM): 0.339 log2 fold change
Z.CTG (standard z score) (ENR+CD organoids; dose 10.00 uM): 0.811

OC[C@H]1O[C@@H](c2ccc(Cl)c(Cc3ccc(O[C@H]4CCOC4)cc3)c2)[C@H](O)[C@@H](O)[C@@H]1O [Empagliflozin (BI 10773)]
Dose.FC.LYZ.NS ([1]; dose 0.08 uM): −0.006 log2 fold change
Dose.FC.LYZ.NS ([1]; dose 0.40 uM): −0.034 log2 fold change
Dose.FC.LYZ.NS ([1]; dose 2.00 uM): −0.009 log2 fold change
Dose.FC.LYZ.NS ([1]; dose 10.00 uM): 0.017 log2 fold change
Z.LYZ.NS ([1]; dose 0.08 uM): −0.052
Z.LYZ.NS ([1]; dose 0.40 uM): −0.294
Z.LYZ.NS ([1]; dose 2.00 uM): −0.081
Z.LYZ.NS ([1]; dose 10.00 uM): 0.144
Dose.FC.LYZ.S ([2]; dose 0.08 uM): −0.051 log2 fold change
Dose.FC.LYZ.S ([2]; dose 0.40 uM): −0.055 log2 fold change
Dose.FC.LYZ.S ([2]; dose 2.00 uM): −0.103 log2 fold change
Dose.FC.LYZ.S ([2]; dose 10.00 uM): −0.022 log2 fold change
Dose.FC.CTG (ENR+CD organoids; dose 0.08 uM): −0.296 log2 fold change
Dose.FC.CTG (ENR+CD organoids; dose 0.40 uM): −0.075 log2 fold change
Dose.FC.CTG (ENR+CD organoids; dose 2.00 uM): −0.192 log2 fold change
Dose.FC.CTG (ENR+CD organoids; dose 10.00 uM): −0.134 log2 fold change
Z.CTG (ENR+CD organoids; dose 0.08 uM): −0.707
Z.CTG (ENR+CD organoids; dose 0.40 uM): −0.178
Z.CTG (ENR+CD organoids; dose 2.00 uM): −0.458
Z.CTG (ENR+CD organoids; dose 10.00 uM): −0.320
